In the supplement of paper PMC10307832:

What was measured:
Assay in all cases: relative viability (nuclei count vs DMSO), 5 days (fraction); higher = more cells survive
[1] = compound: C/C(=N\NC(=S)N1CCC1)/C2=CC=CC=N2 + O=C(c1cc(Cc2n[nH]c(=O)c3ccccc23)ccc1F)N1CCN(C(=O)C2CC2)CC1 [Olaparib] (partner 8 µM)
Summary of the method: (§1)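 After 5 days of treatment, lung cancer cells in 1536-well plates were fixed and stained in a single step (final 0.05% Triton X-100, 1% formaldehyde, 1 ug/ml Hoechst) and their nuclei counted on 4× images. Treatment had been applied by pin tool the day after seeding as one drug alone or as a fixed anchor-drug dose with five library-drug doses (not always all listed) in √10 steps. Relative viability is the nuclei count of treated wells divided by that of vehicle wells, and values are medians of duplicate plates.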

[2] = compound: C/C(=N\NC(=S)N1CCC1)/C2=CC=CC=N2 + CC(C)C[C@H](NC(=O)[C@H](Cc1ccccc1)NC(=O)c1cnccn1)B(O)O [Bortezomib] (partner 0.002 µM)
Summary of the method: as §1

[3] = compound: C/C(=N\NC(=S)N1CCC1)/C2=CC=CC=N2 + Nc1nc2[nH]cc(CCc3ccc(C(=O)N[C@@H](CCC(=O)O)C(=O)O)cc3)c2c(=O)[nH]1 [Pemetrexed] (partner 0.2 µM)
Summary of the method: as §1

[4] = compound: C/C(=N\NC(=S)N1CCC1)/C2=CC=CC=N2 + Cc1nc(NC(=O)N2CCC[C@H]2C(N)=O)sc1-c1ccnc(C(C)(C)C(F)(F)F)c1 [Alpelisib] (partner 2 µM)
Summary of the method: as §1

Row | Cell Line | relative viability ([1]; first compound 0.05 µM) | relative viability ([1]; first compound 0.1581 µM) | relative viability ([1]; first compound 0.5 µM) | relative viability ([1]; first compound 1.581 µM) | relative viability ([1]; first compound 5 µM) | relative viability ([2]; first compound 0.05 µM) | relative viability ([2]; first compound 0.1581 µM) | relative viability ([2]; first compound 0.5 µM) | relative viability ([2]; first compound 1.581 µM) | relative viability ([2]; first compound 5 µM) | relative viability ([3]; first compound 0.05 µM) | relative viability ([3]; first compound 0.1581 µM) | relative viability ([3]; first compound 0.5 µM) | relative viability ([3]; first compound 1.581 µM) | relative viability ([3]; first compound 5 µM) | relative viability ([4]; first compound 0.05 µM) | relative viability ([4]; first compound 0.1581 µM) | relative viability ([4]; first compound 0.5 µM) | relative viability ([4]; first compound 1.581 µM) | relative viability ([4]; first compound 5 µM)
1 | 201T | 0.487 | 0.871 | 0.349 | 0.241 | 0.247 | 0.527 | 0.612 | 0.418 | 0.394 | 0.348 | 0.292 | 0.315 | 0.289 | 0.294 | 0.286 | 0.697 | 0.994 | 0.647 | 0.476 | 0.4
2 | A549 | 0.0312 | 0.0426 | 0.0325 | 0.0517 | 0.0367 | – | – | – | – | – | – | – | – | – | – | 0.0613 | 0.0588 | 0.054 | 0.0318 | 0.0406
3 | A-427 | 0.2 | 0.191 | 0.151 | 0.154 | 0.167 | 0.171 | 0.147 | 0.126 | 0.117 | 0.114 | 0.191 | 0.209 | 0.195 | 0.151 | 0.188 | 0.136 | 0.739 | 0.142 | 0.101 | 0.11
4 | ABC-1 | 0.349 | 0.338 | 0.301 | 0.345 | 0.438 | 0.296 | 0.273 | 0.233 | 0.276 | 0.283 | – | – | – | – | – | 0.371 | 0.226 | 0.234 | 0.27 | 0.281
5 | BEN | 0.292 | 0.259 | 0.271 | 0.272 | 0.283 | 0.15 | 0.211 | 0.211 | 0.193 | 0.165 | 0.256 | 0.318 | 0.262 | 0.279 | 0.311 | 0.195 | 0.194 | 0.266 | 0.232 | 0.198
6 | CAL-12T | 0.16 | 0.149 | 0.185 | 0.171 | 0.131 | 0.21 | 0.252 | 0.256 | 0.215 | 0.24 | 0.14 | 0.132 | 0.173 | 0.143 | 0.122 | 0.148 | 0.146 | 0.126 | 0.127 | 0.121
7 | COR-L23 | 0.107 | 0.0921 | 0.0895 | 0.0916 | 0.105 | 0.12 | 0.139 | 0.114 | 0.077 | 0.0874 | 0.149 | 0.169 | 0.163 | 0.105 | 0.123 | 0.113 | 0.123 | 0.097 | 0.0558 | 0.0865
8 | COR-L 105 | 0.365 | 0.381 | 0.374 | 0.337 | 0.318 | 0.287 | 0.339 | 0.297 | 0.253 | 0.244 | 0.399 | 0.389 | 0.326 | 0.358 | 0.335 | 0.301 | 0.266 | 0.275 | 0.222 | 0.217
9 | Calu-6 | 0.101 | 0.133 | 0.141 | 0.118 | 0.122 | 0.165 | 0.182 | 0.188 | 0.171 | 0.175 | – | – | – | – | – | 0.141 | 0.151 | 0.148 | 0.151 | 0.124
10 | ChaGo-K-1 | 0.137 | 0.247 | 0.126 | 0.138 | 0.135 | 0.285 | 0.462 | 0.285 | 0.221 | 0.318 | 0.172 | 0.171 | 0.18 | 0.161 | 0.162 | – | – | – | – | –
11 | EBC-1 | 0.163 | 0.164 | 0.152 | 0.131 | 0.13 | 0.177 | 0.226 | 0.169 | 0.162 | 0.174 | – | – | – | – | – | 0.191 | 0.192 | 0.166 | 0.152 | 0.147
12 | EKVX | 0.149 | 0.115 | 0.121 | 0.16 | 0.167 | 0.138 | 0.129 | 0.103 | 0.141 | 0.144 | 0.148 | 0.163 | 0.0961 | 0.166 | 0.175 | 0.119 | 0.124 | 0.111 | 0.13 | 0.151
13 | EMC-BAC-2 | 0.188 | 0.22 | 0.195 | 0.164 | 0.203 | 0.104 | 0.142 | 0.149 | 0.174 | 0.16 | 0.26 | 0.255 | 0.275 | 0.228 | 0.259 | 0.288 | 0.426 | 0.122 | 0.163 | 0.152
14 | EPLC-272H | 0.114 | 0.13 | 0.0724 | 0.0602 | 0.131 | 0.116 | 0.155 | 0.133 | 0.131 | 0.116 | 0.165 | 0.179 | 0.149 | 0.0756 | 0.265 | 0.125 | 0.293 | 0.185 | 0.166 | 0.203
15 | H3255 | 0.353 | 0.321 | 0.292 | 0.235 | 0.254 | 0.227 | 0.276 | 0.268 | 0.171 | 0.195 | 0.359 | 0.349 | 0.355 | 0.268 | 0.255 | 0.242 | 0.323 | 0.221 | 0.181 | 0.214
16 | HARA | 0.433 | 0.192 | 0.13 | 0.119 | 0.13 | 0.22 | 0.143 | 0.197 | 0.13 | 0.0787 | 0.218 | 0.174 | 0.212 | 0.141 | 0.165 | 0.31 | 0.0915 | 0.122 | 0.145 | 0.0798
17 | HCC-15 | 0.299 | 0.259 | 0.103 | 0.102 | 0.101 | 0.133 | 0.0661 | 0.0658 | 0.0754 | 0.0698 | 0.198 | 0.11 | 0.13 | 0.113 | 0.093 | 0.191 | 0.453 | 0.0722 | 0.0749 | 0.0746
18 | HCC-44 | 0.863 | 0.918 | 0.541 | 0.517 | 0.446 | 0.335 | 0.234 | 0.221 | 0.19 | 0.239 | 0.599 | 0.52 | 0.549 | 0.547 | 0.424 | 0.473 | 0.143 | 0.178 | 0.162 | 0.218
